Laboratory results as given in ChEMBL document CHEMBL4038345, “Design, Synthesis, and Biological Evaluation of Novel Selenium-Containing Isocombretastatins and Phenstatins as Antitumor Agents” (J Med Chem, 2017).
pIC50: −log10 of the molar value. Active and inactive are the calls of the source. No cut-off for these calls is given here.

Key:
A549/CDDP = experiment: Antiproliferative activity against human A549/CDDP cells after 48 hrs by MTT assay; format: functional, cell-based
HepG2 = experiment: cells; conditions: Homo sapiens, HepG2, 48 h
A549 [1] = experiment: Induction of apoptosis in human A549 cells assessed as late apoptotic cells at 10 nM for 24 hrs by annexin V-FITC/propidium iodide staining-based flow cytometry analysis; format: functional
A549 [2] = experiment: Induction of apoptosis in human A549 cells assessed as late apoptotic cells at 5 nM for 48 hrs by annexin V-FITC/propidium iodide staining-based flow cytometry analysis; format: functional
A549 [3] = experiment: Cell cycle arrest in human A549 cells assessed as increase in accumulation of cells at G2/M phase at 1 nM after 24 hrs by propidium iodide staining-based flow cytometry method; format: functional
A549 [4] = experiment: Induction of apoptosis in human A549 cells assessed as late apoptotic cells at 1 nM for 24 hrs by annexin V-FITC/propidium iodide staining-based flow cytometry analysis; format: functional
[5] = Metabolic stability in Sprague-Dawley rat liver microsomes assessed as compound remaining after 30 mins in presence of NADPH by UV-based HPLC-MS/MS analysis; format: ADME, microsome; conditions: read-out: Stability
A549 [6] = experiment: Disruption of mitochondrial membrane potential in human A549 cells after 24 hrs by JC1 staining-based flow cytometry method; format: functional, cell-based
[7] = Metabolic stability in Sprague-Dawley rat liver microsomes assessed as compound remaining after 90 mins in presence of NADPH by UV-based HPLC-MS/MS analysis; format: ADME, microsome; conditions: read-out: Stability
A549 [8] = experiment: Induction of apoptosis in human A549 cells assessed as early apoptotic cells at 10 nM for 24 hrs by annexin V-FITC/propidium iodide staining-based flow cytometry analysis (reference value: 0.82%); format: functional
A549 [9] = experiment: Induction of apoptosis in human A549 cells assessed as necrotic cells at 10 nM for 48 hrs by annexin V-FITC/propidium iodide staining-based flow cytometry analysis (reference value: 0.02%); format: functional
A549 [10] = experiment: Disruption of mitochondrial membrane potential in human A549 cells assessed as intact mitochondrial membrane at 1 nM after 24 hrs by JC1 staining-based flow cytometry method (reference value: 99.18%); format: functional
LoVo = experiment: Antiproliferative activity against human LoVo cells after 48 hrs by MTT assay
A549 [11] = experiment: Induction of apoptosis in human A549 cells assessed as early apoptotic cells at 5 nM for 24 hrs by annexin V-FITC/propidium iodide staining-based flow cytometry analysis (reference value: 0.82%); format: functional
[12] = (§1) Inhibition of porcine brain tubulin polymerization measured every 60 seconds for 90 mins by DAPI staining-based fluorescence assay; set-up: species or system Sus scrofa
Sus scrofa = organism: Sus scrofa; experiment: as §1
A549 [13] = experiment: Induction of apoptosis in human A549 cells assessed as early apoptotic cells at 5 nM for 48 hrs by annexin V-FITC/propidium iodide staining-based flow cytometry analysis (reference value: 0.97%); format: functional
A549 [14] = experiment: Induction of apoptosis in human A549 cells assessed as live cells at 1 nM for 24 hrs by annexin V-FITC/propidium iodide staining-based flow cytometry analysis (reference value: 99.15%); format: functional
A549 [15] = experiment: Cell cycle arrest in human A549 cells assessed as increase in accumulation of cells at G2/M phase at 5 to 10 nM after 24 hrs by propidium iodide staining-based flow cytometry method; format: functional
A549 [16] = experiment: Induction of apoptosis in human A549 cells assessed as upregulation of Bad expression at 1 to 10 nM after 24 to 48 hrs by Western blot analysis; format: functional, cell-based

`C=C(c1ccc(OC)c(O)c1)c1cc(OC)c(OC)c([Se]C)c1` showed a pIC50 (A549/CDDP) of 7.46, a pIC50 (HepG2) of 8.52 and an Activity (A549 [1]) of 1.45%. For the same compound, the Activity (A549 [2]) was 24.73%, the Activity (A549 [3]) was 50% and the Activity (A549 [4]) was 0.01%. The remaining at 0.5 h [5] was 81.1%, the Activity (A549 [6]) was “Dose-dependent effect” and the remaining at 1.5 h [7] was 44.1%. The Activity (A549 [8]) was 49.48%, the Activity (A549 [9]) was 13.55% and the Activity (A549 [10]) was 86.88%. It also gave a pIC50 (LoVo) of 8.05, an Activity (A549 [11]) of 31.36% and a pIC50 [12] of 5.86. The inhibition (Sus scrofa) was “Dose-dependent effect”, the Activity (A549 [13]) was 15.69% and the Activity (A549 [14]) was 96.34%. For the same compound, the Activity (A549 [15]) was 70% and the Activity (A549 [16]) was “Active”.
